# Data taken from article PMC4468608, “A distinct p53 target gene set predicts for response to the selective p53–HDM2 inhibitor NVP-CGM097” (eLife, 2015).
# System: cell lines from the Cancer Cell Line Encyclopedia (CCLE)
# Assay: High-throughput cell viability assay, CCLE cell line panel (n = 356)
# Format: cell-based, human
# Experimental: Cell lines were partitioned into sensitive and insensitive groups based on compound potency (IC50). […] All other cell lines were obtained from ATCC (American Type Culture Collection), DSMZ (Deutsche Sammlung von Mikroorganismen und Zellkulturen), and HSRRB (Health Science Research Resources Bank) and cultured in RPMI or Dulbecco's modified Eagle's medium plus 10% FBS (Invitrogen, Carlsbad, CA) at 37°C, 5% CO2.
# [1] = cell line KMRC-1, kidney, TP53 WT
# [2] = cell line KMS-27, haem._and_lymphoid_tissue, TP53 WT
# [3] = cell line KMS-28BM, haem._and_lymphoid_tissue, TP53 WT
# [4] = cell line KNS-42, central_nervous_system, TP53 MUT
# [5] = cell line KYSE-410, oesophagus, TP53 MUT
# [6] = cell line KYSE-450, oesophagus, TP53 MUT
# [7] = cell line KYSE-510, oesophagus, TP53 MUT
# [8] = cell line KYSE-520, oesophagus, TP53 MUT
# [9] = cell line L-428, haem._and_lymphoid_tissue, TP53 MUT
# [10] = cell line LN-229, central_nervous_system, TP53 WT
# [11] = cell line MEL-HO, skin, TP53 WT
# [12] = cell line MHH-ES-1, bone, TP53 MUT
# [13] = cell line Malme-3M, skin, TP53 WT
# [14] = cell line NCI-H460, lung, TP53 WT
# [15] = cell line NCI-H647, lung, TP53 MUT
# [16] = cell line NCI-H1299, lung, TP53 WT
# [17] = cell line NCI-H1341, lung, TP53 WT
# [18] = cell line NCI-H1650, lung, TP53 MUT
# [19] = cell line NCI-H1693, lung, TP53 MUT
# [20] = cell line NCI-H1703, lung, TP53 MUT
# [21] = cell line OAW42, ovary, TP53 WT
# [22] = cell line OE19, oesophagus, TP53 MUT
# [23] = cell line OVCAR-8, ovary, TP53 MUT
# [24] = cell line PE/CA-PJ41 (clone D2), upper_aerodigestive_tract, TP53 MUT
# [25] = cell line PEER, haem._and_lymphoid_tissue, TP53 MUT
# [26] = cell line SCaBER, urinary_tract, TP53 MUT
# [27] = cell line SK-HEP-1, liver, TP53 WT
# [28] = cell line SK-MEL-5, skin, TP53 WT
# [29] = cell line SK-MEL-24, skin, TP53 WT
# [30] = cell line SNG-M, endometrium, TP53 WT
# [31] = cell line SNU-423, liver, TP53 MUT
# [32] = cell line SW403, large_intestine, TP53 MUT
# [33] = cell line SW 780, urinary_tract, TP53 WT
# [34] = cell line SW 1573, lung, TP53 WT
# [35] = cell line TE-9, oesophagus, TP53 MUT
# [36] = cell line TE-11, oesophagus, TP53 MUT
# [37] = cell line UM-UC-3, urinary_tract, TP53 MUT
# [38] = cut-off IC50 4 µM, 356 cell lines
smiles,measurement,setting,value
COc1cc2c(cc1OC(C)C)[C@H](c1ccc(Cl)cc1)N(c1ccc(N(C)C[C@H]3CC[C@H](N4CCNC(=O)C4)CC3)cc1)C(=O)C2 [NVP-CFC218],NVP- CFC218 sensitivity call,"cell line JHOS-2, ovary, TP53 MUT",insensitive (Sensitivity call for each compound was applied according to a cut-off of 4 µM for IC50 and -50% for Amax)
same,NVP- CFC218 Amax (%),[1],-42.40%
same,NVP- CFC218 sensitivity call,[1],insensitive (Sensitivity call for each compound was applied according to a cut-off of 4 µM for IC50 and -50% for Amax)
same,NVP- CFC218 Amax (%),[2],-1.14%
same,NVP- CFC218 sensitivity call,[2],insensitive (Sensitivity call for each compound was applied according to a cut-off of 4 µM for IC50 and -50% for Amax)
same,NVP- CFC218 Amax (%),[3],3.74%
same,NVP- CFC218 sensitivity call,[3],insensitive (Sensitivity call for each compound was applied according to a cut-off of 4 µM for IC50 and -50% for Amax)
same,NVP- CFC218 Amax (%),[4],-8.48%
same,NVP- CFC218 sensitivity call,[4],insensitive (Sensitivity call for each compound was applied according to a cut-off of 4 µM for IC50 and -50% for Amax)
same,NVP- CFC218 Amax (%),[5],-24.33%
same,NVP- CFC218 sensitivity call,[5],insensitive (Sensitivity call for each compound was applied according to a cut-off of 4 µM for IC50 and -50% for Amax)
same,NVP- CFC218 Amax (%),[6],-1.37%
same,NVP- CFC218 sensitivity call,[6],insensitive (Sensitivity call for each compound was applied according to a cut-off of 4 µM for IC50 and -50% for Amax)
same,NVP- CFC218 Amax (%),[7],3.18%
same,NVP- CFC218 sensitivity call,[7],insensitive (Sensitivity call for each compound was applied according to a cut-off of 4 µM for IC50 and -50% for Amax)
same,NVP- CFC218 Amax (%),[8],-5.52%
same,NVP- CFC218 sensitivity call,[8],insensitive (Sensitivity call for each compound was applied according to a cut-off of 4 µM for IC50 and -50% for Amax)
same,NVP- CFC218 Amax (%),[9],-26.31%
same,NVP- CFC218 sensitivity call,[9],insensitive (Sensitivity call for each compound was applied according to a cut-off of 4 µM for IC50 and -50% for Amax)
same,NVP- CFC218 Amax (%),[10],-42.01%
same,NVP- CFC218 sensitivity call,[10],insensitive (Sensitivity call for each compound was applied according to a cut-off of 4 µM for IC50 and -50% for Amax)
same,NVP- CFC218 Amax (%),[11],-40.38%
same,NVP- CFC218 sensitivity call,[11],insensitive (Sensitivity call for each compound was applied according to a cut-off of 4 µM for IC50 and -50% for Amax)
same,NVP- CFC218 Amax (%),[12],1.25%
same,NVP- CFC218 sensitivity call,[12],insensitive (Sensitivity call for each compound was applied according to a cut-off of 4 µM for IC50 and -50% for Amax)
same,NVP- CFC218 Amax (%),[13],-39.40%
same,NVP- CFC218 sensitivity call,[13],insensitive (Sensitivity call for each compound was applied according to a cut-off of 4 µM for IC50 and -50% for Amax)
same,NVP- CFC218 Amax (%),[14],0.31%
same,NVP- CFC218 sensitivity call,[14],insensitive (Sensitivity call for each compound was applied according to a cut-off of 4 µM for IC50 and -50% for Amax)
same,NVP- CFC218 Amax (%),[15],-29.54%
same,NVP- CFC218 sensitivity call,[15],insensitive (Sensitivity call for each compound was applied according to a cut-off of 4 µM for IC50 and -50% for Amax)
same,NVP- CFC218 Amax (%),[16],0.83%
same,NVP- CFC218 sensitivity call,[16],insensitive (Sensitivity call for each compound was applied according to a cut-off of 4 µM for IC50 and -50% for Amax)
same,NVP- CFC218 Amax (%),[17],-36.36%
same,NVP- CFC218 sensitivity call,[17],insensitive (Sensitivity call for each compound was applied according to a cut-off of 4 µM for IC50 and -50% for Amax)
same,NVP- CFC218 Amax (%),[18],2.72%
same,NVP- CFC218 sensitivity call,[18],insensitive (Sensitivity call for each compound was applied according to a cut-off of 4 µM for IC50 and -50% for Amax)
same,NVP- CFC218 Amax (%),[19],-4.47%
same,NVP- CFC218 sensitivity call,[19],insensitive (Sensitivity call for each compound was applied according to a cut-off of 4 µM for IC50 and -50% for Amax)
same,NVP- CFC218 Amax (%),[20],-40.27%
same,NVP- CFC218 sensitivity call,[20],insensitive (Sensitivity call for each compound was applied according to a cut-off of 4 µM for IC50 and -50% for Amax)
same,NVP- CFC218 Amax (%),[21],-7.13%
same,NVP- CFC218 sensitivity call,[21],insensitive (Sensitivity call for each compound was applied according to a cut-off of 4 µM for IC50 and -50% for Amax)
same,NVP- CFC218 Amax (%),[22],14.48%
same,NVP- CFC218 sensitivity call,[22],insensitive (Sensitivity call for each compound was applied according to a cut-off of 4 µM for IC50 and -50% for Amax)
same,NVP- CFC218 Amax (%),[23],-30.79%
same,NVP- CFC218 sensitivity call,[23],insensitive (Sensitivity call for each compound was applied according to a cut-off of 4 µM for IC50 and -50% for Amax)
same,NVP- CFC218 Amax (%),[24],-0.29%
same,NVP- CFC218 sensitivity call,[24],insensitive (Sensitivity call for each compound was applied according to a cut-off of 4 µM for IC50 and -50% for Amax)
same,NVP- CFC218 Amax (%),[25],-46.94%
same,NVP- CFC218 sensitivity call,[25],insensitive (Sensitivity call for each compound was applied according to a cut-off of 4 µM for IC50 and -50% for Amax)
same,NVP- CFC218 Amax (%),[26],0.88%
same,NVP- CFC218 sensitivity call,[26],insensitive (Sensitivity call for each compound was applied according to a cut-off of 4 µM for IC50 and -50% for Amax)
same,NVP- CFC218 Amax (%),[27],-41.72%
same,NVP- CFC218 sensitivity call,[27],insensitive (Sensitivity call for each compound was applied according to a cut-off of 4 µM for IC50 and -50% for Amax)
same,NVP- CFC218 Amax (%),[28],-47.83%
same,NVP- CFC218 sensitivity call,[28],insensitive (Sensitivity call for each compound was applied according to a cut-off of 4 µM for IC50 and -50% for Amax)
same,NVP- CFC218 Amax (%),[29],-47.55%
same,NVP- CFC218 sensitivity call,[29],insensitive (Sensitivity call for each compound was applied according to a cut-off of 4 µM for IC50 and -50% for Amax)
same,NVP- CFC218 Amax (%),[30],-25.75%
same,NVP- CFC218 sensitivity call,[30],insensitive (Sensitivity call for each compound was applied according to a cut-off of 4 µM for IC50 and -50% for Amax)
same,NVP- CFC218 Amax (%),[31],-5.91%
same,NVP- CFC218 sensitivity call,[31],insensitive (Sensitivity call for each compound was applied according to a cut-off of 4 µM for IC50 and -50% for Amax)
same,NVP- CFC218 Amax (%),[32],51.39%
same,NVP- CFC218 sensitivity call,[32],insensitive (Sensitivity call for each compound was applied according to a cut-off of 4 µM for IC50 and -50% for Amax)
same,NVP- CFC218 Amax (%),[33],-38.52%
same,NVP- CFC218 sensitivity call,[33],insensitive (Sensitivity call for each compound was applied according to a cut-off of 4 µM for IC50 and -50% for Amax)
same,NVP- CFC218 Amax (%),[34],-48.52%
same,NVP- CFC218 sensitivity call,[34],insensitive (Sensitivity call for each compound was applied according to a cut-off of 4 µM for IC50 and -50% for Amax)
same,NVP- CFC218 Amax (%),"cell line Sq-1, lung, TP53 WT",4.40%
same,NVP- CFC218 sensitivity call,"cell line Sq-1, lung, TP53 WT",insensitive (Sensitivity call for each compound was applied according to a cut-off of 4 µM for IC50 and -50% for Amax)
same,NVP- CFC218 Amax (%),[35],-6.46%
same,NVP- CFC218 sensitivity call,[35],insensitive (Sensitivity call for each compound was applied according to a cut-off of 4 µM for IC50 and -50% for Amax)
same,NVP- CFC218 Amax (%),[36],-3.43%
same,NVP- CFC218 sensitivity call,[36],insensitive (Sensitivity call for each compound was applied according to a cut-off of 4 µM for IC50 and -50% for Amax)
same,NVP- CFC218 Amax (%),[37],-27.23%
same,NVP- CFC218 sensitivity call,[37],insensitive (Sensitivity call for each compound was applied according to a cut-off of 4 µM for IC50 and -50% for Amax)
same,NVP- CFC218 Amax (%),"cell line WM-88, skin, TP53 WT",-37.15%
same,NVP- CFC218 sensitivity call,"cell line WM-88, skin, TP53 WT",insensitive (Sensitivity call for each compound was applied according to a cut-off of 4 µM for IC50 and -50% for Amax)
same,"Number of insensitive cell lines, p53MUT",[38],252
same,"Number of insensitive cell lines, p53WT",[38],57
same,"Number of insensitive cell lines, total",[38],309
same,"Number of sensitive cell lines, p53MUT",[38],4
same,"Number of sensitive cell lines, p53WT",[38],43
same,baseline response rate without prior stratification,estimated from the NVP-CFC218 sensitivity data,19%
same,maximal compound effect level (Amax),for the sensitive cell lines,≤ −50%
